The record followed here is EP0977560B1 (PAZ Arzneimittel- Entwicklungsgesellschaft mbH, priority 1997, dated 1998).

Experiment [1] deals with Transkriptionsfaktors NF-κB. In words: Electro mobility shift assay (DIG Gel Shift Kit) of NF-κB activation in TPA-stimulated Jurkat cells. The experiment is classed as cell-based. The following applies: Phorbolester (TPA) stimulated Jurkat-Zellen; two-hour preincubation; 100, 10 and 1 ptm (Spur 3-5); Abbildung 1. From the text: Einfluß von R-Ibuprofen-CoA-Thioester auf die Aktivierung des Transkriptionsfaktors NF-κB in Jurkat-Zellen. […] Spur 1 zeigt die unstimulierten, Spur 2 die stimulierten Kontrollzellen.
A general note: A gel shift assay detects complexes by their altered migration in electrophoresis.

Experiment [2] concerns PGHS-2 (Cyclooxygenase-2). As to the kind of experiment: Formation of PGHS-2 in LPS-induced monocytes (method after Brideau et al., human whole blood assay). The following applies: LPS-induced Monozyten, 24 Std.; R-Ibuprofenoyl-CoA 0.5, 0.25, 0.05 mM; Ibuprofen, razemisch 1.0, 0.1, 0.05 mM; Abbildung 2. The experiment is classed as cell-based. From the text: Inkubation von LPS-induzierten Monozyten (24 Std.). […] Methode nach: BRIDEAU, C., KARGMAN, S., LIU, S., DALLOB, A.L., EHRICH, E.W., RODGER, I.W. & CHAN, C.C. […] A human whole blood assay for clinical evaluation of biochemical efficacy of cyclooxygenase inhibitors. Inflamm. Res., 45, 68-74.

On to `CC(C)Cc1ccc([C@@H](C)C(=O)SCCNC(=O)CCNC(=O)[C@H](O)C(C)(C)COP(=O)(O)OP(=O)(O)OC[C@H]2O[C@@H](n3cnc4c(N)ncnc43)[C@H](O)[C@@H]2OP(=O)(O)O)cc1` [R-Ibuprofen-CoA-Thioester], for which the “Aktivierung des Transkriptionsfaktors NF-κB” value in experiment [1] is reported as “Aktivierungshemmung von NF-κB”. The “Bildung von PGHS-2 (Cyclooxygenase-2)” value in experiment [2] is “dosisabhängig zu einer Unterdrückung der Bildung von PGHS-2”.
